# Measured values from US11219628B2, “Replacement of cytotoxic preconditioning before cellular immunotherapy” (priority 2017, dated 2022).
# “Also recorded” adds a separate entry of the source. Read-outs that look alike come from different tables or passages of the source.
# What was measured:
# [1] = system: RBC; settings: doses of about 24 mg/50 kg; cited from earlier work
# [2] = system: Tregs; settings: in vivo; cited from earlier work
# [3] = system: germinal centers; settings: 1 to 4 weeks of daily dosing; up to about 10 mgs/kg/day; cited from earlier work
# [4] = system: neutrophil function; settings: cited from earlier work
# [5] = system: spleen weights, germinal centers; settings: po daily for 13 weeks, mice; cited from earlier work
# [6] = cited from earlier work
# [7] = system: blood lymphocytes, neutrophils, RBCs, platelets; assay: Rat complete blood counts 48 hours after acute dexamethasone; settings: IV or PO 20, 40 or 80 mg/kg; for neutrophil number: all doses
# [8] = system: MOPC315 cells; settings: mouse, in vivo
# Source text: (§1) The mouse multiple myeloma MOPC315 cell line available from ATCC is tail vein inoculated to immunocompetent Balbc mice at 2×10^6 cells.
# (§2) Balb/cJ (H-2d) and B10.D2 (H-2d) mice were purchased from Jackson Laboratory (Bar Harbor, Me., USA). Mice were used when they were between 10- to 14-wk-old. […] Red blood cells are lysed using sterile filtered RBC lysis buffer (eBioscience, San Diego, USA) and cells are washed, resuspended in phosphate buffered saline (PBS) containing 3% FBS, and filtered through a 70 mM nylon membrane. For CD8 T-cell depletion, the “Mouse CD8a positive selection kit” (Stem Cell, Grenoble, France) are used according to the manufacturer's EASYSEP depletion protocol. Finally, cells are suspended in 200 ml PBS for i.v. injection. Balbc mice are transplanted by i.v. tail vein injection of 1×10^7 bone marrow cells and 7×10^7 splenocytes from donor B10.D2 mice between 10 and 30 days after MOPC315 inoculation.
# (§3) For allogeneic NK cell administration, fully functional NK cells are isolated from donor B10.D2 mice using commercially available kits such as the one from Miltenyi. Alternatively, mouse NK cells can be purchased from ATCC (KIL cells). The NK Cell Isolation Kit was developed for the isolation of untouched NK cells from single-cell suspensions of murine spleen. Non-NK cells, i.e. T cells, dendritic cells, B cells, granulocytes, macrophages, and erythroid cells are magnetically labeled by using a cocktail of biotin-conjugated antibodies and Anti-Biotin MicroBeads. Isolation of highly pure unlabeled NK cells is achieved by depletion of non-target cells. The kit has been optimized to give outstanding purities in C57BL/6J mice. 1×10^7 isolated NK cells are transplanted by IV tail vein injection between 10 and 30 days after MOPC315 inoculation.
# [9] = system: germinal centers in spleen; assay: Mouse spleen germinal centers by FITC-PNA immunofluorescence
# [10] = system: peripheral blood lymphocytes; assay: Repeat of Hinrichs dexamethasone dosing: peripheral blood lymphocytes by flow cytometry; assay type: in vivo; design: CD3+CD4+CD25+FoxP3+ Tregs reduction / CD3+ T lymphocytes reduction / CD3+CD4+ T lymphocytes reduction / CD3+CD8_T lymphocytes reduction: concentration or dose not given beside the values
# Source text: Prior studies into the use of steroids to precondition a patient prior to ACT had shown this approach to be ineffective. […] In contrast, Hinrichs discloses that pretreatment with radiation did enhance ACT tumor killing. […] However, while Hinrichs reported 99% lymphodepletion, no enhancement of ACT tumor killing was observed. In contrast, Hinrichs observed that radiation does enhance ACT tumor killing. […] In contrast, CD3+ T lymphocytes were reduced from […] live events, only a non-significant […] reduction. CD3+CD4+ T lymphocytes were reduced from 1779 to 902 live events, only a non-significant 50% reduction. CD3+CD8_T lymphocytes were reduced from 1318 to 1277 live events, only a non-significant 3% reduction. CD3+CD4+CD25+FoxP3+ Tregs were reduced from 198 to 70 live events, only a non-significant 65% reduction. And natural killer (NK) cells were reduced from 1153 to 958 live events, only a non-significant 17% reduction.
# [11] = cited from earlier work; remark: listed apart in the source
# [12] = system: IL-2, IL-15, IL-6; assay type: in vivo, human; settings: oral 3 mg/kg dexamethasone base; 48 hours
# Method: (FIG. 12, FIG. 13, FIG. 14 and FIG. 15 show data from the same four human patients.)
# Blood was drawn before drug treatment and 48 hours post-treatment for CBC analysis and flow cytometry to determine lymphocyte and other blood cell populations. Serum was analyzed for cytokine levels. For one patient, pre-treatment CBCs were not drawn and thus normalized flow cytometry data is shown for only 3 patients.
# [13] = system: multiple myeloma and other cancer cell lines; assay: Direct tumor killing by acute dexamethasone; assay type: in vivo; settings: about 1.6 mg/kg HED in a 48 hour period
# Source text: The desired in vivo effects of exemplary NTLAs would include reductions in germinal center and marginal zones in secondary lymphatics, direct tumor killing of some cancers particularly; multiple myeloma, renal cell carcinoma, leukemia and lymphoma, non-small cell lung cancer (NSCLC), prostate and breast cancer; depletion of all peripheral blood lymphocyte types, lack of lymphocyte redistribution to the BM or other organs, and elevation of plasma cytokines including IL-2, and/or IL-7, and/or IL-12, and/or IL-15 to levels preferably of 20 pg/ml or greater, among others.
# [14] = system: blood lymphocyte populations, neutrophils, RBCs, platelets; assay: Mouse CBC and flow cytometry 48 hours after oral acute dexamethasone; settings: oral HED 3, 6, 9 or 12 mg/kg
# Source text: Treg lymphocytes were identified by being CD3+CD4+CD25+FoxP3+.
# NK cells were identified by being CD3−CD49b+. B lymphocytes were identified by being CD3−B220+.
# [15] = system: peripheral blood T and B cells, germinal centers and marginal zones, plasma IL-2 and IL-15; assay: Summary statements: acute dexamethasone doses needed for in vivo NTLA effects
# Source text: The effects of glucocorticoids are complex and depend on each specific glucocorticoid's affinity for the GR and mineralocorticoid receptor (MR). Additionally, there are now 9 known isoforms of the cytosolic GR and additional membrane expressed GR receptors that have been identified but which are not fully characterized. […] In general, at low doses typically used for chronic therapy, glucocorticoids have been reported to redistribute lymphocytes from the peripheral blood into the bone marrow, at medium doses glucocorticoids have been reported to cause leukocytosis thought to be a redistribution of leukocytes from the bone marrow, spleen and thymus into the peripheral blood, and at high doses glucocorticoids have a lymphotoxic action on lymphocytes by triggering apoptosis and necroptosis.
# [16] = system: MOPC315 cells; assay: Immunocompetent mouse model of multiple myeloma: preconditioning before alloHSCT or NK cells; settings: preconditioning before alloHSCT
# Source text: as §1, §2, §3
# [17] = system: blood lymphocyte populations, HSCs
# Source text: Each patients pre-treatment values are connected to post-treatment values by a connecting line. CD4+ cells are also CD3+. CD8+ cells are also CD3+.
# Each patient's pre-treatment values are connected to post-treatment values by a connecting line. Tregs are identified by being CD3+CD4+CD25+FoxP3+. B lymphocytes are identified by being CD3-CD19+.
# Each patient's pre-treatment values are connected to post-treatment values by a connecting line. NK cells are identified by being CD3-CD16/56+. HSCs are identified by being CD34+CD38-.
# Blood was drawn before drug treatment and 48 hours post-treatment for CBC analysis and flow cytometry to determine lymphocyte and other blood cell populations. […] For one patient, pre-treatment CBCs were not drawn and thus normalized flow cytometry data is shown for only 3 patients.
# [18] = Hinrichs dosing, non-significant
compound,measurement,setting,value
C[C@H]1C[C@H]2[C@@H]3CCC4=CC(=O)C=C[C@]4(C)[C@@]3(F)[C@@H](O)C[C@]2(C)[C@@]1(O)C(=O)CO [Betamethasone],effect on RBC,[1],reduces RBC
methylprednisone,effect on Tregs,[2],increases Tregs
C=CC[C@@H]1/C=C(\C)C[C@H](C)C[C@H](OC)[C@H]2O[C@@](O)(C(=O)C(=O)N3CCCC[C@H]3C(=O)O[C@H](/C(C)=C/[C@@H]3CC[C@@H](O)[C@H](OC)C3)[C@H](C)[C@@H](O)CC1=O)[C@H](C)C[C@@H]2OC [Tacrolimus],daily dosing required to reduce germinal centers,[3],≥ 0.48 mg/kg/day
same,neutrophil function,[4],inhibits neutrophil function
C[C@]12C=CC(=O)C=C1CC[C@@H]1[C@@H]2C(=O)C[C@@]2(C)[C@H]1CC[C@]2(O)C(=O)CO [Prednisone],dose above which germinal centers are significantly impacted,[5],over 2.5 mg/kg
same,dose above which spleen weights are significantly impacted,[5],over 2.5 mg/kg
same,biologic half-life,[6],about 20 hours
"C[C@@H]1C[C@H]2[C@@H]3CCC4=CC(=O)C=C[C@]4(C)[C@@]3(F)[C@@H](O)C[C@]2(C)[C@@]1(O)C(=O)CO [Dexamethasone, dexamethasone]",Hct,[7],not affected
same,HgB,[7],not affected
same,RBCs,[7],not affected
same,platelets,[7],not affected
same,neutrophil number,[7],not reduced; also recorded: increased by all doses
same,neutrophil number,[7]; listed as Dex,does not reduce
same,toxicity compared to standard CyFlu preconditioning,[8],much less toxicity
same,toxicity compared to standard repeat CyFlu preconditioning,[8],less toxicity
same,HED at which germinal centers are reduced in mice,[9],≥ 3 mg/kg HED
same,CD3+ T lymphocytes reduction,[10]; [18],33%
same,CD3+CD4+ T lymphocytes reduction,[10]; [18],50%
same,CD3+CD4+CD25+FoxP3+ Tregs reduction,[10]; [18],65%
same,CD3+CD8_T lymphocytes reduction,[10]; [18],3%
same,natural killer (NK) cells reduction,[10]; [18],17%
same,"CD3+CD4+CD25+FoxP3+ Tregs, live events","[10]; Hinrichs dosing, reduced from 198",70 live events
same,"natural killer (NK) cells, live events","[10]; Hinrichs dosing, reduced from 1153",958 live events
same,"CD3+CD8_T lymphocytes, live events","[10]; Hinrichs dosing, reduced from 1318",1277 live events
same,"CD3+CD4+ T lymphocytes, live events","[10]; Hinrichs dosing, reduced from 1779",902 live events
same,"CD3+ T lymphocytes, live events","[10]; intraperitoneal 10 mg/kg (HED 0.81 mg/kg) on day −6, −4, −2, reduced from 3370",2441 live events
same,B lymphocytes reduction vs vehicle control,"[10]; intraperitoneal 10 mg/kg (HED 0.81 mg/kg) on day −6, −4, −2, significant",65%
same,"B lymphocytes (CD3-CD19+ cells) in the peripheral blood, live events by flow cytometry","[10]; intraperitoneal 10 mg/kg (HED 0.81 mg/kg) on day −6, −4, −2, vehicle control 10680",3733 live events
same,lowest lethal dose,[11]; healthy mice,114 mg/kg HED
same,lowest lethal dose,[11]; tumor bearing mice,43 mg/kg HED
same,patients with increased serum IL-2 and/or IL-15 levels,[12],100%
same,direct tumor killing,[13],about 50%
same,RBCs,[14],spared
same,neutrophils,[14],spared
same,platelets,[14],spared
same,B lymphocytes reduction compared to placebo,[14]; dose for the value not stated,83%
same,CD3+ T lymphocytes reduction compared to placebo,[14]; dose for the value not stated,65%
same,CD4+ T lymphocytes reduction compared to placebo,[14]; dose for the value not stated,75%
same,CD8+ T lymphocytes reduction compared to placebo,[14]; dose for the value not stated,56%
same,Tregs reduction compared to placebo,[14]; dose for the value not stated,78%
same,absolute lymphocyte count reduction compared to placebo,[14]; dose for the value not stated,84%
same,natural killer cells (NK) reduction compared to placebo,[14]; dose for the value not stated,87%
same,RBCs,[14]; listed as Dex,spares
same,neutrophils,[14]; listed as Dex,sparing
same,platelets,[14]; listed as Dex,spares
same,neutrophil function,[4],do not inhibit neutrophil function
same,acute oral dose necessary to reduce peripheral blood T and B cells,[15]; 48 hours after administration,≥ 3 mg/kg
same,return to baseline levels of peripheral blood T and B cells,[15]; acute oral doses of 3 mg/kg or greater,5 to 14 days after dosing
same,acute dose required for lymphodepletion,[15]; in vivo,> 3 mg/kg HED
same,acute dose that reduces germinal centers and marginal zones in secondary lymphatics,[15]; in vivo,≥ 6 mg/kg HED
same,dose of dexamethasone base at which plasma IL-2 and IL-15 cytokine elevations are observed,[15]; in vivo,≥ 3 mg/kg HED
same,body weights after preconditioning (in words),[16],not reduced
same,patients showing lymphocytosis,[17]; 3 mg/kg HED,50%
same,hematopoietic stem cells (CD34+CD38-),"[17]; human, in vivo, po, 3 mg/kg",spared
